US20180202388A1, “PISTON FOR AN INTERNAL COMBUSTION ENGINE AND METHOD FOR PRODUCING THE PISTON FOR AN INTERNAL COMBUSTION ENGINE” (FEDERAL-MOGUL NURNBERG GMBH, priority 2015, published 2018)
“Also recorded” adds a separate entry of the source. Each block holds one compound with its values, some of them ahead of it.

Experiments:
DLD1 = assay: CellTiter-Blue cell-based survival/proliferation assay, DLD1; settings: Homo sapiens, DLD-1; Colorectal; DLD_1; 48 h
Method: (§1) Compounds of formula (I) were tested against a panel of about 34 human tumor cell lines representing 17 cancer type, namely leukemia (represented by 1 cell line), lymphoma (4 cell lines), myeloma (1 cell line), colorectal (2 cell lines), head and neck (3 cell lines), lung (3 cell lines), melanoma (2 cell lines), pancreas (2 cell lines), prostate (2 cell lines), ovary (2 cell lines) breast (2 cell lines), kidney (2 cell lines), stomach (2 cell lines), liver (2 cell lines), glioblastoma (2 cell lines), osteosarcoma (1 cell line), Ewing Sarcoma (1 cell line).
(§2) CellTiter-Blue cell-based survival/proliferation assay (Promega G8080) was performed on tumor cell lines. A total of 1.10^4 cells/well/50 μl were seeded in a 96-wells plate. Treatment was initiated by addition of a 2× drug solution of 1/10 serial dilutions ranging from 0 to 10 μM. Cells were grown for 48 h at 37° C. and then incubated with 10 μl/well of Promega CellTiter-Bleue reagent for 4 h at 37° C. The amount of resorufin dye formed was quantified by its fluorescence emission at 590 nm using a scanning multiwell spectrophotometer (OPTIMA, BMG labtech, France). A blank well without cells was used as a background control for the spectrophotometer.

PC3 = assay: CellTiter-Blue cell-based survival/proliferation assay, PC3; settings: Homo sapiens, PC-3, Prostate, 48 h
Method: as §1, §2

TOV112D = assay: CellTiter-Blue cell-based survival/proliferation assay, TOV112D; settings: Homo sapiens, Ovary, 48 h
Method: as §1, §2

CALU6 = assay: CellTiter-Blue cell-based survival/proliferation assay, CALU6; settings: Homo sapiens, Calu-6, Lung, 48 h
Method: as §1, §2

HGC27 = assay: CellTiter-Blue cell-based survival/proliferation assay, HGC27; settings: Homo sapiens, HGC-27, Stomach, 48 h
Method: as §1, §2

ACHN = assay: CellTiter-Blue cell-based survival/proliferation assay, ACHN; settings: Homo sapiens, Kidney, 48 h
Method: as §1, §2

H1299 = assay: CellTiter-Blue cell-based survival/proliferation assay, H1299; settings: Homo sapiens, NCI-H1299, Lung, 48 h
Method: as §1, §2

BT20 = assay: CellTiter-Blue cell-based survival/proliferation assay, BT20; settings: Homo sapiens, BT-20, Breast, 48 h
Method: as §1, §2

PANC1 = assay: CellTiter-Blue cell-based survival/proliferation assay, PANC1; settings: Homo sapiens, PANC-1; Pancreas; PANC_1; 48 h
Method: as §1, §2

CLS354 = assay: CellTiter-Blue cell-based survival/proliferation assay, CLS354; settings: Homo sapiens, CLS-354; Head & Neck; CLS354_4; 48 h
Method: as §1, §2

AGS = assay: CellTiter-Blue cell-based survival/proliferation assay, AGS; settings: Homo sapiens, Stomach, 48 h
Method: as §1, §2

HL60 = assay: CellTiter-Blue cell-based survival/proliferation assay, HL60 (leukemia); settings: Homo sapiens, HL-60; HL60 cells, 48 h; read-out: Anti-tumoral activity (measured IC50), Leukemia HL60
Method: as §1, §2

A498 = assay: CellTiter-Blue cell-based survival/proliferation assay, A498; settings: Homo sapiens, Kidney, 48 h
Method: as §1, §2

DU145 = assay: CellTiter-Blue cell-based survival/proliferation assay, DU145; settings: Homo sapiens, DU-145, Prostate, 48 h
Method: as §1, §2

MESSA = assay: CellTiter-Blue cell-based survival/proliferation assay, MESSA; settings: Homo sapiens, MES-SA, Ovary, 48 h
Method: as §1, §2

HEP2 = assay: CellTiter-Blue cell-based survival/proliferation assay, HEP2; settings: Homo sapiens, HEp-2, Head & Neck, 48 h
Method: as §1, §2

HEPG2 = assay: CellTiter-Blue cell-based survival/proliferation assay, HEPG2; settings: Homo sapiens, Liver, 48 h
Method: as §1, §2

HCT116 = assay: CellTiter-Blue cell-based survival/proliferation assay, HCT116; settings: Homo sapiens, HCT-116, Colorectal, 48 h
Method: as §1, §2

SW579 = assay: CellTiter-Blue cell-based survival/proliferation assay, SW579; settings: Homo sapiens, Head & Neck, 48 h
Method: as §1, §2

MDAMB231 = assay: CellTiter-Blue cell-based survival/proliferation assay, MDAMB231; settings: Homo sapiens, MDA-MB-231, Breast, 48 h
Method: as §1, §2

OPM2 = assay: CellTiter-Blue cell-based survival/proliferation assay, OPM2 (myeloma); settings: Homo sapiens, OPM-2; OPM2 cells, 48 h; read-out: Anti-tumoral activity (measured IC50), Myeloma OPM2
Method: as §1, §2

PLCPRF5 = assay: CellTiter-Blue cell-based survival/proliferation assay, PLCPRF5; settings: Homo sapiens, PLC-PRF-5; Liver; PLC_PRF5; 48 h
Method: as §1, §2

BXPC3 = assay: CellTiter-Blue cell-based survival/proliferation assay, BXPC3; settings: Homo sapiens, BXPC-3, Pancreas, 48 h
Method: as §1, §2

A549 = assay: CellTiter-Blue cell-based survival/proliferation assay, A549; settings: Homo sapiens, Lung, 48 h
Method: as §1, §2

[1] = tested on: human kinases (456 kinases); assay: KINOMEscan in vitro kinase profiling (primary screen binding interactions, % Ctrl, S-score); settings: for interaction with the 456 kinases tested: screened at 1 μM; for S-score, type S1 / S-score, type S10 / Number of hits/number of kinases, S10 / Number of hits/number of kinases, S1 / Kinase targets, S10 / Kinase targets, S1: tested at 1 μM; for S-score, type S1: S(1)=(number of kinases with % Ctrl<1)/(number of kinases tested); for S-score, type S10: S(10)=(number of kinases with % Ctrl <10)/(number of kinases tested); for Number of hits/number of kinases, S10: hits with % Ctrl <10; for Number of hits/number of kinases, S1: hits with % Ctrl<1; for Kinase targets, S10: kinases with % Ctrl <10; for Kinase targets, S1: kinases with % Ctrl<1
Method: An in vitro kinase profiling was conducted in order to evidence the absence of protein kinase inhibition by the compounds of the invention.
DiscoveRx (Ambit Biosciences) has developed a high-throughput system (KINOMEscan™) for screening of compounds against large numbers of human kinases (456 kinases).
The compounds of the invention were screened at the concentration of 1 μM, and results for primary screen binding interactions were reported as percent control (% Ctrl), where lower numbers indicate stronger hits. DMSO is used as a negative control (100% Ctrl) while a high affinity compound is used as a positive control (0% Ctrl). % Ctrl is calculated as follow: […]
Selectivity Score or S-score is a quantitative measure of compound selectivity. It is calculated by dividing the number of kinases that compounds bind to by the total number of distinct kinases tested, excluding mutant variants. S(10)=(number of kinases with % Ctrl <10)/(number of kinases tested), S(1)=(number of kinases with % Ctrl<1)/(number of kinases tested).

Compound: CCOCc1ccc(C)c(Nc2nc(-c3ccc(-n4cccn4)nc3)cs2)c1 [Example 062, 4-(6-(1H-pyrazol-1-yl)pyridin-3-yl)-N-(5-(ethoxymethyl)-2-methylphenyl)thiazol-2-amine]
IC50 (DLD1): > 1 µM
IC50 (PC3): > 1 µM
IC50 (TOV112D): ≤ 0.1 µM
IC50 (CALU6): > 1 µM
IC50 (HGC27): > 1 µM
IC50 (ACHN): > 1 µM
IC50 (H1299): > 1 µM
IC50 (BT20): > 1 µM
IC50 (PANC1): > 1 µM
IC50 (CLS354): 0.5 to 1 µM
IC50 (AGS): > 1 µM
IC50 (HL60): 0.1 to 0.5 µM
IC50 (A498): > 1 µM
IC50 (DU145): > 1 µM
IC50 (MESSA): > 1 µM
IC50 (HEP2): 0.5 to 1 µM
IC50 (HEPG2): > 1 µM
IC50 (HCT116): > 1 µM
IC50 (SW579): > 1 µM
IC50 (MDAMB231): > 1 µM
IC50 (OPM2): 0.1 to 0.5 µM
IC50 (PLCPRF5): > 1 µM
IC50 (BXPC3): > 1 µM
IC50 (A549): > 1 µM

interaction with the 456 kinases tested [1]: do not efficiently interact
S-score, type S1 [1]: 0.000
S-score, type S10 [1]: 0.002
Number of hits/number of kinases, S10 [1]: 1/456
Number of hits/number of kinases, S1 [1]: 0/456
Kinase targets, S10 [1]: CDKL3
Compound: CCOCc1ccc(C)c(Nc2ncc(-c3ccc(-n4cccn4)cc3)o2)c1 [Example 033, (5-Ethoxymethyl-2-methyl-phenyl)-[5-(4-pyrazol-1-yl-phenyl)-oxazol-2-yl]-amine]

interaction with the 456 kinases tested [1]: do not efficiently interact
S-score, type S1 [1]: 0.000
S-score, type S10 [1]: 0.000
Number of hits/number of kinases, S10 [1]: 0/456
Number of hits/number of kinases, S1 [1]: 0/456
Kinase targets, S1 [1]: None
Compound: CCOCc1ccc(C)c(Nc2ncc(-c3ccc(N4CCNC4=O)cc3)o2)c1 [Example 006, 1-{4-[2-(5-Ethoxymethyl-(2-methyl-phenylamino))-oxazol-5-yl]-phenyl}-imidazolidin-2-one]

interaction with the 456 kinases tested [1]: do not efficiently interact
S-score, type S1 [1]: 0.002
S-score, type S10 [1]: 0.009
Number of hits/number of kinases, S10 [1]: 4/456
Number of hits/number of kinases, S1 [1]: 1/456
Kinase targets, S1 [1]: PDGFRB
Compound: CCOCc1ccc(C)c(Nc2nc(-c3ccc(N4CCNC4=O)cc3)cs2)c1 [Example 003, 1-{4-[2-(5-Ethoxymethyl-(2-methyl-phenylamino))-thiazol-4-yl]-phenyl}-imidazolidin-2-one]
Kinase targets, S10 [1]: KIT, KIT V559D,; also recorded: KIT L576P
